Molecules are shown by their SMILES. In brackets after ≈: the same amount, converted by molar mass.

Solubility data for one molecule are collected here from patent US20080234291A1, “Mitratapide Oral Solution” (priority 2004, published 2008).

Data set [1] in a line: solubility of mitratapide in water. In kind it is physicochemical. On the procedure:
Since mitratapide has a solubility of less than 0.5 μg/ml in water, which can be increased to 0.4 mg/ml at a pH of 1.2, the presence of a solubilizing agent is necessary for the preparation of aqueous solutions. Hydroxypropyl-β-cyclodextrin (HP-β-CD) is a suitable solubilizing agent with which mitratapide forms higher order water soluble complexes. In order to obtain an aqueous solution comprising mitratapide with a concentration of 5 mg/ml it is necessary to use HP-β-CD in an amount of 250 mg/ml and adjusting the pH to 4. Furthermore it is necessary to add an antimicrobial preservative to these aqueous HP-β-CD solutions to protect them against microbial spoilage during manufacture or use. The addition of benzoic acid, a well known antimicrobial preservative for acidic aqueous solutions having a pH ≦4.5, however caused a precipitation of mitratapide probably due to a competition between mitratapide and benzoic acid for inclusion into the HP-β-CD cavity. To compensate, the HP-β-CD concentration had to be increased from 250 mg/ml to 400 mg/ml to solubilize mitratapide at a concentration of 5 mg/ml. […]

Data set [2] in a line: solubility of mitratapide in different pharmaceutical solvents. Format: physicochemical. The following applies: about 22° C.

`CCC(C)n1ncn(-c2ccc(N3CCN(c4ccc(OCC5COC(CSc6nncn6C)(c6ccc(Cl)cc6)O5)cc4)CC3)cc2)c1=O` (stereo not drawn) [mitratapide, (−)-[2S-[2α,4α(S*)]]-4-[4-[4-[4-[[2-(4-chlorophenyl)-2-[[(4-methyl-4H-1,2,4-triazol-3-yl)thio]methy]-1,3-dioxolan-4-yl]methoxy]pheny]-1-piperazinyl]phenyl]-2,4-dihydro-2-(1-methylpropyl)-3H-1,2,4-triazol-3-one]: the solubility is 400 µg/mL (≈ 0.558 mM) in data set [1] (water at pH 1.2, pH 1.2, simulated gastric fluid, pH of 1.2, read-out: solubility in water at pH 1.2); below 0.5 µg/mL in data set [1] (water, read-out: solubility in water); below 5000 µg/mL in data set [2] (caprylic/capric/linoleic acid triglyceride (Miglyol 818), oil or lipid, caprylidcapridlinoleic acid triglyceride (Miglyol 818 ®)); below 5000 µg/mL in data set [2] (oil or lipid, apricot Kernel oil PEG-6 complex (Labrafil 1944CS ®)); below 5000 µg/mL in data set [2] (oil or lipid, caprylic/capric acid triglyceride (Miglyol 812 ®)); below 5000 µg/mL in data set [2] (oil or lipid, caprylic/capric diester of propylene glycol). In addition, the solubility is below 5000 µg/mL in data set [2] (oil or lipid, caprylic/capric/succinic acid triglyceride (Miglyol 829 ®)); above 5000 µg/mL in data set [2] (oil or lipid, caprylocaproyl-8 glyceride (Labrasol ®)); below 5000 µg/mL in data set [2] (oil or lipid, corn oil PEG-6 complex (Labrafil 2125CS ®)); below 50 µg/mL in data set [2] (oil or lipid, sesame oil); above 5000 µg/mL in data set [2] (organic solvent or mixture, diethylene glycol monoethyl ether (Transcutol ®)); above 5000 µg/mL in data set [2] (organic solvent or mixture, dimethyl isosorbide (2,5-di-O-methyl-1,4:3,6-dianhydro D-glucitol)). This molecule also gave a solubility in data set [2] (propylene glycol monolaurate (Lauroglycol), oil or lipid, Dropylene glycol monolaurate (Lauroglycol ®)) above 5000 µg/mL.

What is called solubility is the dissolved amount per volume that the medium holds.
